Test results from patent publication US5331006A, “Amino acid analogs as CCK antagonists” (Warner-Lambert Company, priority 1991, dated 1994).

Target: T1, CCK receptor sites (Mus musculus, UniProt P56481)
T1 construct: from tissue; host or cells: cerebral cortex membranes of male CFLP mice
T1 sequence (P56481 1-453): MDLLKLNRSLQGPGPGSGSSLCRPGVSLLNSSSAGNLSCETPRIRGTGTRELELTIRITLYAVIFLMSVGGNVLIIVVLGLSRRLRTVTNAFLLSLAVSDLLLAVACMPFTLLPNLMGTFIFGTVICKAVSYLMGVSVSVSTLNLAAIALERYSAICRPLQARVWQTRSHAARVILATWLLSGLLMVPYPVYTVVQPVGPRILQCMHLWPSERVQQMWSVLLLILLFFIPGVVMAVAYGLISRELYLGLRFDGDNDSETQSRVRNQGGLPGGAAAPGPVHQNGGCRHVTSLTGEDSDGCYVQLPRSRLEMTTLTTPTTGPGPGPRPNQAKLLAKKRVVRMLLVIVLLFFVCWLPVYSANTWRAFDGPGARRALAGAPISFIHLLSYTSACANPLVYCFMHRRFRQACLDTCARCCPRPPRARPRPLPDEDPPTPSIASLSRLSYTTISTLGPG
Assay: CCK receptor binding, displacement of tritiated pentagastrin from mouse cerebral cortex membranes
Settings: 2 nM tritiated pentagastrin, mouse cerebral cortical membranes; Ki from IC50 by Cheng-Prusoff; read-out: Ki
Method: The biological activity of compounds of the present invention was evaluated employing an initial screening test which rapidly and accurately measured the binding of the tested compound to known CCK receptor sites. […] (See Hays, et al, Neuropeptides 1:53-62, 1980; and Satuer, et al, Science 208:1155-1156, 1980.)
In this screening test the cerebral cortices taken from male CFLP mice weighing between 30 to 40 g were dissected on ice, weighed, and homogenized in 10 volumes of 50 mM Tris-HCl buffer (pH 7.4 at 0° to 4° C.). The resulting suspension was centrifuged, the supernate was discarded, and the pellet was washed by resuspension in Tris-HCl buffer followed by recentrifugation. The final pellet was resuspended in 20 volumes of […] Hepes buffer (pH 7.2 at 23° C.) containing 130 mM NaCl, […] KCl, […] MgCl2, […] EDTA, 5 mg/mL bovine albumin, and bacitracin (0.25 mg/mL).
In saturation studies, cerebral cortical membranes were incubated at 23° C. for 120 minutes in a final volume of 500 μL of Hepes incubation buffer (pH 7.2) together with 0.2-20 nM tritiated-pentagastrin (Amersham International, England).
In the displacement experiments, membranes were incubated with a single concentration (2 nM) of ligand, together with increasing concentrations of competitive test compound. In each case, the nonspecific binding was defined as that persisting in the presence of the unlabeled octapeptide CCK26-33 (10^-6 M).
Following incubation, radioactivity bound to membranes was separated from that free in solution by rapid filtration through Whatman GF/B filters and washed three times with 4 mL of ice cold Tris-HCl buffer. Filters from samples incubated with tritiated pentagastrin were placed in polyethylene vials with 4 mL of scintillation cocktail, and the radioactivity was estimated by liquid scintillation spectrometry (efficiency 47% to 52%).
The specific binding to CCK receptor sites was defined as the total bound tritiated pentagastrin minus the amount of tritiated pentagastrin bound in the presence of 10^-6 octapeptide, CCK26-33.
Saturation curves for specific tritiated pentagastrin binding to mouse cortical membranes were analyzed by the methods of Scatchard (Ann. New York Acad. Sci. 51:660-672, 1949; Hill, J. Physiol. 40:IV-VIII, 1910) to provide estimates for the maximum number of binding sites (βmax)and the equilibrium dissociation constant (Ka).
In displacement experiments, inhibition curves were analyzed by either logit-log plots or the iterative curve fitting computer program ALLFIT (DeLean, Munson, and Redbard, 1978) to provide estimates of the IC50 and nH (apparent Hill coefficient) values). IC50 values were defined as the concentration of test compound required to produce 50% inhibition of specific binding).
The inhibition constant (Ki) of the test compound was then calculated according to the Cheng-Prusoff equation: [formula] where [L] is the concentration of radiolabel and Ka is the equilibrium dissociation constant.
The Ki values for several representative compounds of the present invention are present in Table II.

| Ki | Structure (SMILES) |
| --- | --- |
| 88 nM | CC(Cc1ccnc2ccccc12)(NC(=O)OC1C2CC3CC(C2)CC1C3)C(=O)NCC(NC(=O)CCC(=O)O)c1ccccc1 (stereo not shown) |
| 1280 nM | CC(Cc1c(Br)oc2ccccc12)(NC(=O)OC1C2CC3CC(C2)CC1C3)C(=O)NCCc1ccccc1 (stereo not shown) [drawing 28 (H H H H H)] |
| 930 nM | CC(Cc1ncc2ccccn12)(NC(=O)OC1C2CC3CC(C2)CC1C3)C(=O)NCCc1ccccc1 (stereo not shown) [drawing 57 (H H H H H)] |
| 220 nM | CC(Cc1ccncc1)(NC(=O)OC1C2CC3CC(C2)CC1C3)C(=O)NCC(NC(=O)CCC(=O)O)c1ccccc1 (stereo not shown) |
